Earlier results on 1 compound are cited in patent publication US8518458B2, “Tea-derived compositions and methods of using same for cardiovascular health” (Immune Guard, LLC, priority 2006, dated 2013).

The conditions of the series: spontaneously hypertensive rats.

As to `CCNC(=O)CC[C@H](N)C(=O)O` [L-theanine, γ-glutamylethylamide], the “effect on blood pressure” value is “reduces blood pressure”.
